Laboratory results as given in US9738634B2, “Heterocyclic amide compound and herbicide” (SYNGENTA PARTICIPATIONS AG, priority 2013, dated 2017).

How the values were obtained:
Type in all cases: in vivo
[1] = tested on: oval-leafed pondweed; assay: Test Example 1: weedkilling efficacy, preemergent weed treatment in the submerged state; C: oval-leafed pondweed; settings: treatment dosage 252 g/ha
Procedure, shortened: (§1)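 Alluvial soil in Wagner pots flooded to 4 cm; barnyard grass, bulrush and oval-leafed pondweed seeds sown, then 2.5-leaf rice seedlings transplanted. Same day, emulsified compound diluted in water to set g/ha dosages and applied to water surface; greenhouse 25–30 °C, effect scored by criteria after 3 weeks.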

[2] = tested on: directly sown rice; assay: Test Example 3: soil treatment, effect on crop; b: directly sown rice; settings: soil treatment, treatment dosage 315 g/ha
Procedure, shortened: (§2)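 Crop and weed responses were judged three weeks after a uniform surface spray of the water-diluted emulsion at the given g/ha rate. Seeds sat beneath about 1.5 cm of sterilized diluvial soil, and boxes stood in a greenhouse at 25 to 30° C.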

[3] = tested on: green foxtail; assay: Test Example 3: weedkilling efficacy through soil treatment; E: green foxtail; settings: soil treatment, treatment dosage 315 g/ha
Procedure, shortened: as §2

[4] = tested on: beet; assay: Test Example 3: soil treatment, effect on crop; f: beet; settings: soil treatment, treatment dosage 315 g/ha
Procedure, shortened: as §2

[5] = tested on: Indian mallow; assay: Test Example 3: weedkilling efficacy through soil treatment; K: Indian mallow; settings: soil treatment, treatment dosage 315 g/ha
Procedure, shortened: as §2

[6] = tested on: bulrush; assay: Test Example 2: weedkilling efficacy, growth period weed treatment in the submerged state; B: bulrush; settings: treatment dosage 252 g/ha
Procedure, shortened: (§3)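 First, alluvial soil in pots is flooded to 4 cm and mixed seed is sown. Next, plants grow in a greenhouse at 25 to 30° C until the 1-2 leaf stage. Then diluted emulsion is applied onto the water surface at the given g/ha rate, and injury is assessed after 3 weeks.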

[7] = tested on: crabgrass; assay: Test Example 3: weedkilling efficacy through soil treatment; D: crabgrass; settings: soil treatment, treatment dosage 315 g/ha
Procedure, shortened: as §2

[8] = tested on: corn; assay: Test Example 3: soil treatment, effect on crop; c: corn; settings: soil treatment, treatment dosage 315 g/ha
Procedure, shortened: as §2

[9] = tested on: soybean; assay: Test Example 3: soil treatment, effect on crop; d: soybean; settings: soil treatment, treatment dosage 315 g/ha
Procedure, shortened: as §2

[10] = tested on: wheat; assay: Test Example 3: soil treatment, effect on crop; e: wheat; settings: soil treatment, treatment dosage 315 g/ha
Procedure, shortened: as §2

[11] = tested on: oval-leafed pondweed; assay: Test Example 2: weedkilling efficacy, growth period weed treatment in the submerged state; C: oval-leafed pondweed; settings: treatment dosage 252 g/ha
Procedure, shortened: as §3

[12] = tested on: barnyard grass; assay: Test Example 1: weedkilling efficacy, preemergent weed treatment in the submerged state; A: barnyard grass; settings: treatment dosage 252 g/ha
Procedure, shortened: as §1

[13] = tested on: fig-leafed goosefoot; assay: Test Example 3: weedkilling efficacy through soil treatment; M: fig-leafed goosefoot; settings: soil treatment, treatment dosage 315 g/ha
Procedure, shortened: as §2

[14] = tested on: wild oat; assay: Test Example 3: weedkilling efficacy through soil treatment; G: wild oat; settings: soil treatment, treatment dosage 315 g/ha
Procedure, shortened: as §2

[15] = tested on: barnyard grass; assay: Test Example 2: weedkilling efficacy, growth period weed treatment in the submerged state; A: barnyard grass; settings: treatment dosage 252 g/ha
Procedure, shortened: as §3

[16] = tested on: black-grass; assay: Test Example 3: weedkilling efficacy through soil treatment; H: black-grass; settings: soil treatment, treatment dosage 315 g/ha
Procedure, shortened: as §2

[17] = tested on: chickweed; assay: Test Example 3: weedkilling efficacy through soil treatment; N: chickweed; settings: soil treatment, treatment dosage 315 g/ha
Procedure, shortened: as §2

[18] = tested on: birds-eye speedwell; assay: Test Example 3: weedkilling efficacy through soil treatment; p: birds-eye speedwell; settings: soil treatment, treatment dosage 315 g/ha
Source text: Weedkilling Efficacy Test Through Soil Treatment
Sterilized diluvial soil was introduced into 21 cm long, 13 cm wide, 7 cm deep plastic boxes, and seeds of crabgrass, green foxtail, barnyard grass, wild oat, black-grass, Italian ryegrass, common wind-grass, Indian mallow, redroot pigweed, fig-leafed goosefoot, chickweed, catchweed, birds-eye speedwell, corn, soybean, rice, wheat, beet and rapeseed were each spot-sown, and covered with about 1.5 cm of soil. Next, emulsions of compounds of the present invention prepared according to compounding example 2 were diluted with water to give the specified dosages, and applied uniformly onto the soil surface with a small sprayer. The plants were grown by placing the plastic boxes in a greenhouse at 25 to 30° C., and 3 weeks after the pesticide treatment the effect on each type of plant was investigated on the basis of the assessment criteria of test example 1.
A: barnyard grass, B: bulrush, C: oval-leafed pondweed, D: crabgrass, E: green foxtail, F: barnyard grass, G: wild oat, H: black-grass, I: Italian ryegrass, J: common wind-grass, K: Indian mallow, L: redroot pigweed, M: fig-leafed goosefoot, N: chickweed, O: catchweed, p: birds-eye speedwell, a: transplanted rice, b: directly sown rice, c: corn, d: soybean, e: wheat, f: beet, g: rapeseed
Further, pesticide dosage (g/ha) indicates the concentration regulated such that treatment was with only the stated number of grams (g), when calculated per hectare (ha).

[19] = tested on: redroot pigweed; assay: Test Example 3: weedkilling efficacy through soil treatment; L: redroot pigweed; settings: soil treatment, treatment dosage 315 g/ha
Procedure, shortened: as §2

[20] = tested on: Italian ryegrass; assay: Test Example 3: weedkilling efficacy through soil treatment; I: Italian ryegrass; settings: soil treatment, treatment dosage 315 g/ha
Procedure, shortened: as §2

[21] = tested on: bulrush; assay: Test Example 1: weedkilling efficacy, preemergent weed treatment in the submerged state; B: bulrush; settings: treatment dosage 252 g/ha
Procedure, shortened: as §1

[22] = tested on: transplanted rice; assay: Test Example 1: preemergent weed treatment in the submerged state, effect on crop; a: transplanted rice; settings: treatment dosage 252 g/ha
Procedure, shortened: as §1

Row | SMILES | C: oval-leafed pondweed, weed kill grade [1] | b: directly sown rice, effect on crop grade [2] | E: green foxtail, weedkilling efficacy grade [3] | f: beet, effect on crop grade [4] | K: Indian mallow, weedkilling efficacy grade [5] | B (bulrush) weedkilling efficacy grade [6] | D: crabgrass, weedkilling efficacy grade [7] | c: corn, effect on crop grade [8] | d: soybean, effect on crop grade [9] | e: wheat, effect on crop grade [10] | C (oval-leafed pondweed) weedkilling efficacy grade [11] | A: barnyard grass, weed kill grade [12] | M: fig-leafed goosefoot, weedkilling efficacy grade [13] | G: wild oat, weedkilling efficacy grade [14] | A (barnyard grass) weedkilling efficacy grade [15] | H: black-grass, weedkilling efficacy grade [16] | N: chickweed, weedkilling efficacy grade [17] | P: birds-eye speedwell, weedkilling efficacy grade [18] | L: redroot pigweed, weedkilling efficacy grade [19] | I: Italian ryegrass, weedkilling efficacy grade [20] | further results
1 | CC(C)(C(=O)Nc1cccc(F)n1)N1COCN(c2ccccc2)C1=O [A-2-05] | 5 (weed kill ratio 90% or more, (practically complete withering)) | 5 (weed kill ratio 90% or more, (practically complete withering)) | 5 (weed kill ratio 90% or more, (practically complete withering)) | 5 (weed kill ratio 90% or more, (practically complete withering)) | 3 (weed kill ratio 40% or more, less than 70%) | 5 (weed kill ratio 90% or more, (practically complete withering)) | 5 (weed kill ratio 90% or more, (practically complete withering)) | 4 (weed kill ratio 70% or more, less than 90%) | 4 (weed kill ratio 70% or more, less than 90%) | 4 (weed kill ratio 70% or more, less than 90%) | 4 (weed kill ratio 70% or more, less than 90%) | 5 (weed kill ratio 90% or more, (practically complete withering)) | 4 (weed kill ratio 70% or more, less than 90%) | 5 (weed kill ratio 90% or more, (practically complete withering)) | 4 (weed kill ratio 70% or more, less than 90%) | 5 (weed kill ratio 90% or more, (practically complete withering)) | 4 (weed kill ratio 70% or more, less than 90%) | 5 (weed kill ratio 90% or more, (practically complete withering)) | 5 (weed kill ratio 90% or more, (practically complete withering)) | 5 (weed kill ratio 90% or more, (practically complete withering)) | B: bulrush, weed kill grade [21]: 5 (weed kill ratio 90% or more, (practically complete withering)); a: transplanted rice, effect on crop grade [22]: 3 (weed kill ratio 40% or more, less than 70%)
2 | CC(C)(C(=O)Nc1ccccn1)N1COCN(c2ccccc2)C1=O [A-2-01] | 4 (weed kill ratio 70% or more, less than 90%) | 3 (weed kill ratio 40% or more, less than 70%) | 4 (weed kill ratio 70% or more, less than 90%) | 0 (weed kill ratio 5% or less (practically no effect)) | 0 (weed kill ratio 5% or less (practically no effect)) | 5 (weed kill ratio 90% or more, (practically complete withering)) | 4 (weed kill ratio 70% or more, less than 90%) | 0 (weed kill ratio 5% or less (practically no effect)) | 2 (weed kill ratio 20% or more, less than 40%) | 0 (weed kill ratio 5% or less (practically no effect)) | 2 (weed kill ratio 20% or more, less than 40%) | 5 (weed kill ratio 90% or more, (practically complete withering)) | 4 (weed kill ratio 70% or more, less than 90%) | 2 (weed kill ratio 20% or more, less than 40%) | 3 (weed kill ratio 40% or more, less than 70%) | 5 (weed kill ratio 90% or more, (practically complete withering)) | 3 (weed kill ratio 40% or more, less than 70%) | 5 (weed kill ratio 90% or more, (practically complete withering)) | 3 (weed kill ratio 40% or more, less than 70%) | 5 (weed kill ratio 90% or more, (practically complete withering)) | B: bulrush, weed kill grade [21]: 5 (weed kill ratio 90% or more, (practically complete withering)); a: transplanted rice, effect on crop grade [22]: 0 (weed kill ratio 5% or less (practically no effect))
3 | CC(C)(C(=O)Nc1ncc(Cl)s1)N1COCN(c2ccccc2)C1=O [A-1-07] | 5 (weed kill ratio 90% or more, (practically complete withering)) | 5 (weed kill ratio 90% or more, (practically complete withering)) | 5 (weed kill ratio 90% or more, (practically complete withering)) | 5 (weed kill ratio 90% or more, (practically complete withering)) | 4 (weed kill ratio 70% or more, less than 90%) | 5 (weed kill ratio 90% or more, (practically complete withering)) | 5 (weed kill ratio 90% or more, (practically complete withering)) | 3 (weed kill ratio 40% or more, less than 70%) | 1 (weed kill ratio 5% or more, less than 20%) | 2 (weed kill ratio 20% or more, less than 40%) | 5 (weed kill ratio 90% or more, (practically complete withering)) | 5 (weed kill ratio 90% or more, (practically complete withering)) | 4 (weed kill ratio 70% or more, less than 90%) | 5 (weed kill ratio 90% or more, (practically complete withering)) | 5 (weed kill ratio 90% or more, (practically complete withering)) | 5 (weed kill ratio 90% or more, (practically complete withering)) | 4 (weed kill ratio 70% or more, less than 90%) | 5 (weed kill ratio 90% or more, (practically complete withering)) | 5 (weed kill ratio 90% or more, (practically complete withering)) | 5 (weed kill ratio 90% or more, (practically complete withering)) | B: bulrush, weed kill grade [21]: 5 (weed kill ratio 90% or more, (practically complete withering)); a: transplanted rice, effect on crop grade [22]: 0 (weed kill ratio 5% or less (practically no effect))
